Data as given in EP1808169B1, “Polyhydroxylated aromatic compounds for the treatment of amyloidosis and alpha-synuclein fibril diseases” (priority 1999, dated 2001).
Marks after values point to notes of the source that are not given here.

Legend:
Format in all cases: biochemical
Aβ 1-42 amyloid fibrils = test: Thioflavin T fluorometry: disassembly/disruption of pre-formed Aβ 1-42 amyloid fibrils; settings: for Fluorescence inhibition, %, at the Aβ 1-42:compound w/w ratios given: overnight (~18 hours) at 37°C, pH 7.0, mean of triplicate ± standard deviation
Description: For the first study, 1 mg of Aβ 1-42 (Bachem Inc., Torrance, CA, USA) was dissolved in 1.0 ml of double distilled water (1 mg/ml solution). 25 µM of Aβ 1-42 was then incubated overnight (~18 hours) at 37°C, in the absence or presence of 100µg/ml of the following compounds: 1) EDTA (Sigma Chemical Company, St. Louis, MO, USA), 2) myricetin (Acros, Somerville, New Jersey, USA), 3) exifone (Acros) 4) pyrogallol (Sigma), 5) tannic acid (Acros), 6) pyrocatechol (Acros), 7) quercetin (Sigma), 8) ellagic acid (Acros), 9) 1,2,4-benzenetriol (Acros), 10) 5-hydroxydopamine (Acros), 11) gallamide hydrate (Acros), 12) gallic acid (Sigma), 13) ethyl gallate (Acros), 14) quinic acid (Acros), 15) propyl gallate (Sigma), and 16) phloroglucide (Acros), each in the presence of 150 mM Tris HCl, 10 mM NaCl (pH 7.0) with 0.02% sodium azide. In this study, the Aβ 1-42:compound weight ratio was 1:1.
For the second study, 1 mg of Aβ 1-42 (Bachem) was dissolved in 1.0 ml of double distilled water (1 mg/ml solution). 25 µM of Aβ 1-42 was then incubated overnight (~18 hours) at 37°C, in the absence or presence of 50µg/ml of the following compounds: 1) gallic acid, 2) ethyl gallate, 3) quinic acid, 4) gallamide trihydrate, 5) ellagic acid, 6) propyl gallate, and 7) pyrogallol, each in the presence of 150 mM Tris HCl, 10 mM NaCl (pH 7.0) with 0.02% sodium azide. In this study, the Aβ 1-42:compound weight ratio was 2:1.
Thioflavin T is known to bind to fibrillar amyloid proteins, and an increase in fluorescence correlates with an increase in amyloid fibril formation, whereas a decrease in fluorescence correlates with a decrease in amyloid fibrils due to disassembly and/or disruption. The Alzheimer's Aβ protein (1-42) when placed in solution, such as distilled water, tends to spontaneously form amyloid fibrils. Using this sensitive assay, any decreases or increases in fluorescence was previously shown to correlate with a decrease or increase in the amount of amyloid fibrils (see the documents cited above), allowing one to identify and quantitate the extent of potential inhibitors and/or enhancers of Alzheimer's Aβ 1-42 amyloid fibrils.
To assess the effects of each compound on potential disassembly/ disruption of preformed Aβ 1-42 fibrils, 50 µl of Aβ 1-42 with or without test compounds (described above) were added to 1.2 ml of 100µM Thioflavin T (Sigma) in 50mM NaH2PO4 (pH 6.0) for fluorometry readings. […] Fluorescence emission at 482 nm was measured on a Turner instrument-model 450 fluorometer at an excitation wavelength of 450 nm. For each determination, the fluorometer was calibrated by zeroing in the presence of the Thioflavin T reagent alone, and by setting the 50 ng/ml riboflavin (Sigma Chemical Co., St. Louis, MO) in the Thioflavin T reagent to 1800 fluorescence units. All fluorescence determinations were based on these references and any fluorescence given off by any of the compounds in the presence of the Thioflavin T reagent was always subtracted from all pertinent readings.
For all fibrillogenesis studies utilizing Thioflavin T fluorometry, as disclosed herein, comparisons of amyloid protein in the presence or absence of test compounds were based on paired Student's t tests with data shown as the mean of triplicate measurements ± standard deviation.

Aβ 1-40 amyloid fibrils = test: Modified Congo red-Aβ spectrophotometric assay: disaggregation of pre-formed Aβ 1-40 fibrils (3 days incubation); settings: Aβ:compound weight ratio 2:1; fibrillized Aβ 1-40 incubated with compound 3 days at 37°C in TBS pH 7.0; Δ absorbance at 540 nm; triplicate
Description: In this study, a Congo red-Aβ spectrophotometric assay (Klunk et al., Anal. Biochem. 266:66-76, 1999) was modified to determine the effectiveness of polyhydroxylated aromatic compounds on the disaggregation of pre-formed Aβ 1-40 amyloid fibrils. For this assay, 1 mg of Aβ 1-40 (Bachem) was incubated for 4 days in distilled water at 37°C to spontaneously produce amyloid fibrils. 25pM of fibrillized Aβ 1-40 was then incubated in triplicate with various test compounds for 3 days at 37°C in Tris-buffered saline (TBS)(100 mM Tris; 50 mM NaCl; pH 7.0, with 0.02% sodium azide), at an Aβ:compound weight ratio of 2:1. Following incubation, 50µl of 360 µM Congo red (Sigma) in distilled water was then added to 250 µl of each incubation mixture, giving a final Aβ:Congo red molar ratio of 1:3. After 10 minutes, the absorbance at 405 nm (reference wavelength to account for the absorbance of Congo red alone at 540 nm) and 540 nm (sample absorbance where "sample" refers to Aβ alone, test compound alone, or Aβ plus test compound, all in the presence of Congo red) was determined using a Biorad Model 550 BLISA Plate Reader (Biorad, Hercules, CA, USA). The absorbance at wavelength 405 nm was automatically subtracted by the ELISA plate reader from the absorbance at wavelength 540 nm (difference is referred to as Δ absorbance)(see Klunk et al. cited above). Therefore, the Δ absorbance reading at 540 nm was proportional to the amount of aggregated Aβ left in solution (Klunk et al.).
For all experiments involving test compounds, the Δ absorbance reading at 540 nm of the test compound alone (in the absence of Aβ), was always subtracted from the corresponding Δ absorbance reading at 540 nm of the test compound in the presence of Aβ. Using this modification of the method of Klunk et al., the use of a greater final concentration of Congo red, i.e. 60µM instead of 14µM, in the presence of fibrillar Aβ gave an overall absorbance at 540 nm that was always below 1.0 Absorbance Unit (AU), and well within the linear absorbance range.
The following polyhydroxylated aromatic containing compounds were tested using the above described Congo red-Aβ spectrophotometric assay to determine their effectiveness on disaggregation of pre-formed Aβ 1-40 amyloid fibrils: 1) gallic acid, 2) ethyl gallate, 3) quinic acid, 4) gallamide trihydrate, 5) ellagic acid, 6) propyl gallate, and 7) pyrogallol.

human amylin [1] = target: T1, human amylin (Homo sapiens, UniProt P10997); test: Thioflavin T fluorometry: disassembly/disruption of islet amyloid (amylin) fibrils; settings: 25 µM human amylin, 100µg/ml compound, amylin:compound weight ratio 1:1, overnight (~18 hours) at 37°C, pH 7.0; read-out: Fluorescence inhibition, %
T1 construct: This amyloid protein involved consists of a 37 amino acid protein known as islet amyloid polypeptide or amylin; purchased Bachem
T1 sequence (P10997 34-70 limits assumed): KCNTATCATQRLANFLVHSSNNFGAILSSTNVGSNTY

human amylin [2] = target: T1, human amylin; test: Congo red staining of amylin fibrils on gelatin-coated slides (polarized light); settings: result in words; amylin + compound after overnight incubation, compared with amylin alone
Description: Following Thioflavin T fluorometry readings as described in Example 1, 5µl aliquots of amylin only, amylin + myricetin, amylin + exifone, and amylin + tannic acid were also taken, allowed to air dry overnight on gelatin-coated slides, and stained with Congo red as previously described (Castillo et al., Diabetes 47:612-620, 1998).

[3] = Aβ 1-42:compound w/w ratio 2:1, 25 µM Aβ 1-42, 50µg/ml compound
[4] = Aβ 1-42:compound w/w ratio 1:1, 25 µM Aβ 1-42, 100µg/ml compound

SMILES	Fluorescence inhibition, %, at the Aβ 1-42:compound w/w ratios given (Aβ 1-42 amyloid fibrils; [3]) [%]	Decrease in absorbance, % (Aβ 1-40 amyloid fibrils)	further results
NC(=O)c1cc(O)c(O)c(O)c1.O.O.O [Gallamide trihydrate, gallamide trihydrate]	60 ± 2.2	31 ± 1.9%	–
Oc1cccc(O)c1O [Pyrogallol, pyrogallol]	72 ± 3.8	63 ± 3.4%	–
O=c1c(O)c(-c2cc(O)c(O)c(O)c2)oc2cc(O)cc(O)c12 [Myricetin, myricetin]	–	–	inhibition at 100 µg/mL (human amylin [1]): 97.4 ± 0.3%; Congo red staining (human amylin [2]): marked decrease in Congo red staining
CCCOC(=O)c1cc(O)c(O)c(O)c1 [Propyl gallate, propyl gallate]	38 ± 4.8	17 ± 7.3 %	–
O=c1oc2c(O)c(O)cc3c(=O)oc4c(O)c(O)cc1c4c23 [Ellagic acid, ellagic acid]	62 ± 3.9	54 ± 2.8%	–
O=C(O)CN(CCN(CC(=O)O)CC(=O)O)CC(=O)O [EDTA, reference compound]	–	–	disassembly/disruption of Aβ 1-42 amyloid fibrils (Aβ 1-42 amyloid fibrils; result in words, 100µg/ml compound, 25 µM Aβ 1-42, weight ratio 1:1, overnight at 37°C): no significant disassembly/disruption
Oc1cc(O)cc(-c2c(O)cc(O)cc2O)c1 [Phloroglucide, phloroglucide]	–	–	Fluorescence inhibition, %, at the Aβ 1-42:compound w/w ratios given (Aβ 1-42 amyloid fibrils; [4]): 30 ± 0.6%
O=C(c1cc(O)c(O)c(O)c1)c1ccc(O)c(O)c1O [Exifone, exifone]	–	–	Fluorescence inhibition, %, at the Aβ 1-42:compound w/w ratios given (Aβ 1-42 amyloid fibrils; [4]): 93 ± 1.4%; inhibition at 100 µg/mL (human amylin [1]): 99.1 ± 0.5%; Congo red staining (human amylin [2]): marked decrease in Congo red staining
CCOC(=O)c1cc(O)c(O)c(O)c1 [Ethyl gallate, ethyl gallate]	30 ± 3.7	28 ± 5.0%	–
O=C(O)[C@]1(O)C[C@@H](O)[C@@H](O)[C@H](O)C1 [Quinic acid, quinic acid]	0.5 ± 3.9	0 + 5.0** %	–
